The source of these data is US6291194A, “Assay for determination of androgenic or anti-androgenic activity of a serum sample or a test compound” (priority 2000, dated 2001).

The target in one data set is T1, androgen receptor (AR) (Homo sapiens, UniProt P10275).
T1 construct: The LBD of human AR (containing amino acids 657-919); expressed in transfected cells; host or cells: COS-1 cells (ATCC CRL1650)
The experiment in a line: COS-1 bioassay, inhibition by nonsteroidal antiandrogens of testosterone-induced AR LBD / N-terminal interaction. The class given is cell-based.

The conditions of data set [1]: cited from earlier work.

T1 sequence (P10275 with tags, fused parts or gaps limits assumed): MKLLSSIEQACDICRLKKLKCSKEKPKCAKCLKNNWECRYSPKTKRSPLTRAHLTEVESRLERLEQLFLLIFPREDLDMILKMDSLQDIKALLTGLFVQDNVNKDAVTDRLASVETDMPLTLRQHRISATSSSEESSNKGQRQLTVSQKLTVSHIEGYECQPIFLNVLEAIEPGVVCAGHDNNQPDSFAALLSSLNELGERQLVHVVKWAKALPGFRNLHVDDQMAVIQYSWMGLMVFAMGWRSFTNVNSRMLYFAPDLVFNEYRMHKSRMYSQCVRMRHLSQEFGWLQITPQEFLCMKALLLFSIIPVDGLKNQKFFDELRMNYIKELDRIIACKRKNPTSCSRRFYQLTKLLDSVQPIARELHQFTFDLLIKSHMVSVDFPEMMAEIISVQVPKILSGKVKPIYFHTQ

As for `CC(C)(O)C(=O)Nc1ccc([N+](=O)[O-])c(C(F)(F)F)c1` [hydroxyflutamide, 4-hydroxy-α,α,α-trifluoro-2-methyl-4'-nitro-m-propionotoluidide], on androgen receptor (AR), the “effect on interaction between AR termini / relative luciferase activity (in words)” value was “suppressed relative luciferase activity”. Moreover, the “relative luciferase activity as % of activity with testosterone-containing FCS without antiandrogen” value on androgen receptor (AR) (100 times molar amount of testosterone (10 nmol/L testosterone in FCS)) is ~ 5%.
Consider `C[C@]12CC[C@H]3[C@@H](CCC4=CC(=O)CC[C@@]43C)[C@@H]1CC[C@@H]2O` [testosterone, Testosterone], for which the “free fraction of total testosterone in serum” value in data set [1] is given as 2-3%.
